“And” between values parts separate entries of the source, which are not always exact repeats. Identical values can stand only once.

The record followed here is US20090048295A1, “SUBSTITUTED 5,6,7,8-TETRAHYDROQUINOLINE DERIVATIVES, COMPOSITIONS, AND METHODS OF USE THEREOF” (priority 2007, published 2009).

Test [1] deals with T1, C5a receptor (Homo sapiens, UniProt P21730).
T1 sequence (P21730 1-350): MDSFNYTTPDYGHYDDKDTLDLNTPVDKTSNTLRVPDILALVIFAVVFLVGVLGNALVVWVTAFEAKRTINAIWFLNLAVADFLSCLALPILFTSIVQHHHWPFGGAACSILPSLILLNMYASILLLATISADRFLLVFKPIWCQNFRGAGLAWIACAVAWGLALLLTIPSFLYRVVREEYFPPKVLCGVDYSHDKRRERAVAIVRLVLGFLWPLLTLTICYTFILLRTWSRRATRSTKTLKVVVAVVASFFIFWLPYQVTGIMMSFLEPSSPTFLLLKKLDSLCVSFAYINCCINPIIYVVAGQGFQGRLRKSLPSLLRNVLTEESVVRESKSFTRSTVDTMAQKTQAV
As to the kind of experiment: [125I]-C5a Radioligand Binding Assay (competition binding, differentiated U937 cells).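 On all read-outs here: cells preincubated with compound 30 min at room temperature, then 60 min at 4 °C with radioligand, bound counts read by scintillation, nonspecific binding defined with 100 nM C5a.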 The note with it: [125I]-C5a 0.05 nM, U937 cells, multiple values = duplicate experiments; for inhibition at 1 µM: read-out: [125I]-C5a Binding % Inhibition 1 μM, test compound 1 μM; for inhibition at 10 µM: read-out: [125I]-C5a Binding % Inhibition 10 μM, test compound 10 μM; for [125I]-C5a Binding % Inhibition 1 μM: test compound 1 μM; for [125I]-C5a Binding % Inhibition 10 μM: test compound 10 μM.

The target of test [2] is T1, C5a receptor. Description: Calcium Mobilization Assay (C5a-induced Ca2+ mobilization, FLIPR, differentiated U937 cells). The class given is cell-based. The note with it: […] recombinant human C5a, 20 min pre-incubation, multiple values = duplicate experiments, read-out: C5a Induced Ca Mobil. Average IC50. More on the design: endogenous in cells; host or cells: U937 cells differentiated with dibutyryl cAMP. On the procedure: U937 cells (human monocytic cell line) were cultured in RPMI-1640 medium supplemented with 10% fetal bovine serum, 10 mM HEPES, 0.11 g/L pyruvate, 0.29 g/L L-glutamine, 100 IU/mL penicillin G and […] streptomycin. Dibutyryl cAMP (1 mM) was added to induce differentiation 2 or 3 days prior to loading the cells with 4.4 μM Fluo-3AM (Molecular Probes) for 30 min at 37° C. in RPMI medium containing 20 mM HEPES, 0.1% bovine serum albumin (BSA) and 5 mM probenecid. After washing, cells were dissolved at 2×10^6 cells/ml in HBSS buffer (Invitrogen 14190-094) supplemented with 10 mM HEPES, 2.5 mM probenecid and 0.1% BSA (pH=7.4), and sedimented by 1 min centrifugation (1500 rpm) in black 96-well plates (Costar) (200,000 cells/well). A 100× concentration range of test compounds was prepared in DMSO and further diluted in HBSS buffer. U937 cells were pre-incubated with compound for 20 minutes at room temperature (1% DMSO), before recombinant human C5a (Sigma) was added to the cells (1.5 nM). Changes in intracellular free Ca^2+ concentration were measured using the Fluorescent Imaging Plate Reader (FLIPR, Molecular Devices). Fluorescence was recorded every second from 10 seconds before the addition of C5a until 2 min after the addition. The maximal fluorescence obtained during this time frame was used for further calculations.
(Calcium flux is commonly read through the fluorescence of an indicator in the cells.)

Consider `CCc1cccc(CC)c1-c1cc(OC)c2c(n1)CCCC2Nc1cccc(OC)c1` (stereo not shown) [Compound 81], for which, at C5a receptor [1], the inhibition (commonly the relative decrease from the control value, in per cent) at 1 µM is 55% and the inhibition at 10 µM came to 71%. The IC50 (in general, the concentration needed to halve the response being measured) on C5a receptor [2] turned out to be 7410 nM.

Consider `CCc1cccc(CC)c1-c1cc(OC)c2c(n1)CCCC2Nc1cc(C(F)(F)F)ccc1C` (stereo not shown) [Compound 28], for which, on C5a receptor [1], the inhibition at 1 µM stood at 88% and the inhibition at 10 µM worked out at 92%. Moreover, the IC50 at C5a receptor [2] came out at 287 nM.

`CCc1cccc(CC)c1-c1cc(OC)c2c(n1)CCCC2N(C)c1c(C)ccc2ccccc12` (stereo not shown) [Compound 52]: on C5a receptor [1], the inhibition at 1 µM was 86% and the inhibition at 10 µM stood at 86%. Moreover, the IC50 on C5a receptor [2] was 1480 nM.

As for `CCc1cccc(CC)c1-c1cc(OC)c2c(n1)CCCC2N1CCCC1` (stereo not shown) [Compound 126], at C5a receptor [1], the inhibition at 1 µM is -11% and the inhibition at 10 µM was 18%. Moreover, on C5a receptor [2], the IC50 was above 10000 nM.

Turning to `CCc1cccc(CC)c1-c1cc(OC)c2c(n1)CCCC2N(C)c1cc(Cl)ccc1C` (stereo not shown) [Compound 67], on C5a receptor [1], the inhibition at 1 µM was determined as 82% and the inhibition at 10 µM amounted to 86%. Also, the IC50 at C5a receptor [2] was 2560 nM.

On to `CCc1cccc(CC)c1-c1cc(OC)c2c(n1)CCCC2N(C)CCCc1ccccc1` (stereo not shown) [Compound 91], for which, at C5a receptor [1], the “[125I]-C5a Binding % Inhibition 1 μM” value came to 20% and the “[125I]-C5a Binding % Inhibition 10 μM” value worked out at 60%. Besides, the half-maximal inhibitory concentration (IC50) at C5a receptor [2] was above 10000 nM.

Turning to `CCc1cccc(CC)c1-c1cc(OC)c2c(n1)CCCC2N(C)c1cccc2c1CCC2` (stereo not shown) [Compound 72], at C5a receptor [1], the inhibition at 1 µM came to 86% and the inhibition at 10 µM was 85%. Further, the IC50 on C5a receptor [2] came to 3790 nM.

Take `CCc1cccc(CC)c1-c1cc(OC)c2c(n1)CCCC2N(C)c1cccc2cc(OC)ccc12` (stereo not shown) [Compound 22]: on C5a receptor [1], the “[125I]-C5a Binding % Inhibition 1 μM” value was 87% and the “[125I]-C5a Binding % Inhibition 10 μM” value came out at 86%. Also, the IC50 at C5a receptor [2] is 176 nM.

Take `CCc1cccc(CC)c1-c1cc(OC)c2c(n1)CCCC2N1CCc2c(Cl)cccc2C1` (stereo not shown) [Compound 56]: on C5a receptor [1], the inhibition at 1 µM is 84% and the inhibition at 10 µM worked out at 85%. Besides, the IC50 at C5a receptor [2] is 1690 nM.

In the case of `CCc1cccc(CC)c1-c1cc(OC)c2c(n1)CCCC2N(C)c1ccc(OC)c2ccccc12` (stereo not shown) [Compound 36], on C5a receptor [1], the inhibition at 1 µM came to 86% and the inhibition at 10 µM amounted to 87%. For the same compound, the IC50 at C5a receptor [2] turned out to be 531 nM.

Regarding `CCc1cccc(CC)c1-c1cc(OC)c2c(n1)CCCC2N(C)c1ccc(OC)cc1C` (stereo not shown) [Compound 80], on C5a receptor [1], the inhibition at 1 µM stood at 80% and the inhibition at 10 µM turned out to be 81%. Further, the IC50 on C5a receptor [2] was found to be 6190 nM.

For `CCc1cccc(CC)c1-c1cc(OC)c2c(n1)CCCC2N1CCCc2ccccc21` (stereo not shown) [Compound 65], the “[125I]-C5a Binding % Inhibition 1 μM” value at C5a receptor [1] is −7% and 1%. Further, the IC50 at C5a receptor [2] was 2430 nM.

On to `COc1cc(-c2c(C)cccc2C)nc2c1C(N(C)c1ccc(Cl)c3ccccc13)CCC2` (stereo not shown) [Compound 48], for which, on C5a receptor [1], the inhibition at 1 µM worked out at 85% and the inhibition at 10 µM came out at 91%. Also, the IC50 at C5a receptor [2] came out at 1210 nM.

For `CCc1cccc(CC)c1-c1cc(OC)c2c(n1)CCC[C@H]2N(C)[C@H]1CCCc2ccccc21` [Compound 43], at C5a receptor [1], the inhibition at 1 µM stood at 80% and the inhibition at 10 µM came out at 83%. Moreover, the IC50 on C5a receptor [2] is 817 nM.

For the compound `COc1cccc(N(C)C2CCCc3nc(-c4c(C)cccc4C)cc(OC)c32)c1C` (stereo not shown) [Compound 117], on C5a receptor [1], the “[125I]-C5a Binding % Inhibition 1 μM” value is 86% and the “[125I]-C5a Binding % Inhibition 10 μM” value is reported as 85%. Further, the half-inhibitory concentration (IC50) on C5a receptor [2] is above 10000 nM.

Take `COc1ccc(C)c(N(C)C2CCCc3nc(-c4c(C)cccc4C)cc(OC)c32)c1` (stereo not shown) [Compound 69]: at C5a receptor [1], the inhibition at 1 µM was 76% and the inhibition at 10 µM turned out to be 85%. Further, the IC50 on C5a receptor [2] was determined as 3220 nM.

In the case of `CCc1cccc(CC)c1-c1cc(OC)c2c(n1)CCCC2N1CCc2ccccc21` (stereo not shown) [Compound 93], at C5a receptor [1], the inhibition at 1 µM stood at 68% and the inhibition at 10 µM amounted to 80%. For the same compound, the IC50 on C5a receptor [2] was above 10000 nM.

For the compound `CCc1cccc(CC)c1-c1cc(OC)c2c(n1)CCC[C@@H]2N(C)[C@H]1CCCc2ccccc21` [Compound 77], at C5a receptor [1], the “[125I]-C5a Binding % Inhibition 10 μM” value came out at 72%. Also, the IC50 at C5a receptor [2] turned out to be 5500 nM.
